From patent US7176185B2, “Short peptide carrier system for cellular delivery of agent” (TSRL, Inc., priority 2003, dated 2007)

Key:
[1] = molecular target: T1, hpept1 dipeptide transporter (Homo sapiens, UniProt P46059); experiment: Inhibition of 3H-Gly-Sar uptake in DC5 cell line (Ki determination); assay type: cell-based; details: 50 uM 3H-Gly-Sar, 10 min, 37° C., unit inferred, mM, read-out: TSRL - Ki
T1 construct: expressed in transfected cells; host or cells: DC5 = human medulloblastoma cell line Dpar transfected with a eukaryotic expression plasmid holding the hPept1 gene
T1 sequence (P46059 1-708): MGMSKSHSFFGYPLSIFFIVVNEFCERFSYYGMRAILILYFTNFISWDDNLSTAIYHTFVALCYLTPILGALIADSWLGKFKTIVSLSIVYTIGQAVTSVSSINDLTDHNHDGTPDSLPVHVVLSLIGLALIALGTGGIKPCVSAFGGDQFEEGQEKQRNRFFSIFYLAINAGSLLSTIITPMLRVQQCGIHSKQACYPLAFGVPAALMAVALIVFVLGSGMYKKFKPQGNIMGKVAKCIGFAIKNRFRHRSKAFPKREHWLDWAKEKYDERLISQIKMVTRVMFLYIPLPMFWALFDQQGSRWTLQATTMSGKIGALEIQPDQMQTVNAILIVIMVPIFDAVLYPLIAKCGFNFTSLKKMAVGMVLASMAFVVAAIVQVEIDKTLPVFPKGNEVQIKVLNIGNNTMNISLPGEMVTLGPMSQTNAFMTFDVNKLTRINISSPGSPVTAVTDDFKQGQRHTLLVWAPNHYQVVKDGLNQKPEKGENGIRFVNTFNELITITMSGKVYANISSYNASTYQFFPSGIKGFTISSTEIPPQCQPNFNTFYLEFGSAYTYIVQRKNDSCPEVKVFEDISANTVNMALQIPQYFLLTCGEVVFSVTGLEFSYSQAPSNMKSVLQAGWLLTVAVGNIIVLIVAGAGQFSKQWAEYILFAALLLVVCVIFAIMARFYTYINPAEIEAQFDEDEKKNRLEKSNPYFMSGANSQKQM
From the text: The developed system functions as an initial screen for interaction with the dipeptide transporter by measuring the ability of a given test compound to inhibit the uptake of the marker dipeptide ^3H-Gly-Sar. Using this system in a 96-well format, one can rapidly screen compounds for their ability to bind to the dipeptide transporter by measuring the inhibition constant (Ki) of the compound against Gly-Sar uptake. In this assay, a positive result indicates binding, but not necessarily transport. Positive results are assessed for actual transport in conventional uptake assays.
The inhibitory Ki for a given compound is determined in DC5 cell line using the radioactive substrate 3H-glycine-sarcosine (GS). DC5 cells were plated (12,000 cells/well) in 96-well tissue culture plates (Falcon) and allowed to grow for 2 days. The cells were washed once with 200 ul of uptake buffer and aspirated. The plates were cooled to 4° C. and 25 ul of uptake buffer containing 50 uM Gly-Sar (0.5 uCi/ml) was added. The uptake buffer also contained the test β-lactam antibiotic, Cefaclor, over a range of concentrations. Uptake was initiated by placing the plate in a shaker water bath (37° C.) and terminated at 10 min by rapid washing with multiple changes of 4° C. PBS (Sigma). The radioactive peptide was extracted from the cell layer with 200 ul of methanol:water (1:1) and counted in 4 ml of CytoScint ES™ scintillation cocktail (ICN). Non-linear regression analysis of the data was used to determine the IC50 using the solver function in Microsoft Excel spreadsheets.

[2] = literature value (Bretschneider et al. 1999); 'parenteral' marks drugs given parenterally; cited from earlier work
hPepT1 = molecular target: T2, hPepT1 (Homo sapiens, UniProt P46059); experiment: Inhibition of LALA uptake into DC5 cells by competitive substrates; assay type: cell-based; details: 30 minutes; for Inhibition of LALA uptake (FIG. 7, specificity): 25 μM LALA, 20 mM dipeptide or 40 mM amino acid
T2 construct: expressed in transfected cells; host or cells: DC5 = human medulloblastoma cell line Dpar transfected with a eukaryotic expression plasmid holding the hPept1 gene
T2 sequence (P46059 1-708): T1 sequence (P46059 1-708)
Description: After 30 minutes the cells are washed and the fluorescence measured in the cells.
DC5 and Dpar cells are incubated in transport buffer and the indicated concentrations of LALA added ? and (¦), respectively. These experiments are repeated in the presence of 20 mM Gly-Pro for DC5 (⋄) and Dpar (?). After 30 minutes, the cells are washed and processed for fluorescent determination. […] After 30 minutes the cells are washed and the fluorescence measured in the cells. […] Fluorescence imagining of LALA in DC5 cells is shown in FIG. 8, where cells on a polylysine coated slide are incubated in the transport buffer with 50 μM LALA in the presence (right image) or absence (left image) the hPepT1 competitive inhibitor Gly-Pro (20 mM) for 20 minutes at room temperature. Cells are washed with cold PBS and viewed with an inverted microscope and imaged with a digital camera, with the images being at the same magnification and exposure time.

Dpar cells = experiment: LALA fluorescent uptake in parental Dpar cells; assay type: cell-based, human; details: 30 minutes, fluorescence
Description: (§1) FIG. 6 is a graph showing the uptake of LALA in DC5 and Dpar as a function of LALA concentration. DC5 and Dpar cells are incubated in transport buffer and the indicated concentrations of LALA added ? and (¦), respectively. These experiments are repeated in the presence of 20 mM Gly-Pro for DC5 ? and Dpar (?). After 30 minutes, the cells are washed and processed for fluorescent determination.
FIG. 7 is a bar graph showing specificity of LALA uptake. 25 μM of LALA is incubated in the presence 20 mM Gly-Sar ? 20 mM Gly-Pro ? 40 mM phenylalanine ? and 40 mM proline ? in either the DC5 or the Dpar, cell line. After 30 minutes the cells are washed and the fluorescence measured in the cells. […] There is minimal LALA uptake in the parental line Dpar.
(§2) […] and not Dpar specifically uptake LALA. […] After 30 minutes the cells are washed and the fluorescence measured in the cells. […] Because the marker probe is fluorescent, the system is amenable to more rapid throughput, through the use of automated fluorescent plate readers. Fluorescence imagining of LALA in DC5 cells is shown in FIG. 8, where cells on a polylysine coated slide are incubated in the transport buffer with 50 μM LALA in the presence (right image) or absence (left image) the hPepT1 competitive inhibitor Gly-Pro (20 mM) for 20 minutes at room temperature. […]

[3] = molecular target: T3, DC5 cell line overexpressing HPEPT1 (Homo sapiens, UniProt P46059); experiment: LALA fluorescent uptake in DC5 cells; assay type: cell-based; details: transport buffer, 30 minutes, fluorescence
T3 construct: expressed in transfected cells; host or cells: DC5 = human medulloblastoma cell line Dpar transfected with a eukaryotic expression plasmid holding the hPept1 gene
T3 sequence (P46059 1-708): T1 sequence (P46059 1-708)
Description: as §1
as §2, with “LALA. DC5 and Dpar cells are incubated in transport buffer and the indicated concentrations of LALA added ? and (¦), respectively. These experiments are repeated in the presence of 20 mM Gly-Pro for DC5 (⋄) and Dpar (?). After 30 minutes, the cells are washed and processed for fluorescent determination.” for “LALA.”

| Ki [1] | SMILES | Bioavailability [2] | other results |
| --- | --- | --- | --- |
| 5.39 mM | N[C@@H](C(=O)N[C@@H]1C(=O)N2C(C(=O)O)=C(Cl)CS[C@H]12)c1ccccc1 [Cefaclor] | 100 |  |
| 2.7 mM | CC1=C(C(=O)O)N2C(=O)[C@@H](NC(=O)[C@H](N)c3ccc(O)cc3)[C@H]2SC1 [Cefadroxil] | 100 |  |
| 16.4 mM | Cn1nnnc1SCC1=C(C(=O)O)N2C(=O)[C@@H](NC(=O)[C@H](O)c3ccccc3)[C@H]2SC1 [Cefamandole] | <1 parenteral |  |
| > 20 mM | CO/N=C(\C(=O)N[C@@H]1C(=O)N2C(C(=O)O)=C(CSc3nc(=O)c(=O)[nH]n3C)CS[C@H]12)c1csc(N)n1 [Ceftriaxon] | <5 parenteral |  |
| 23.2 mM | CO/N=C(\C(=O)N[C@@H]1C(=O)N2C(C(=O)O)=C(COC(N)=O)CS[C@H]12)c1ccco1 [Cefuroxime] | <1 parenteral |  |
| 11.1 mM | CC(=O)OCC1=C(C(=O)O)N2C(=O)[C@@H](NC(=O)Cc3cccs3)[C@H]2SC1 [Cephalothin] | <5 parenteral |  |
| 7.02 mM | CC1=C(C(=O)O)N2C(=O)[C@@H](NC(=O)[C@H](N)C3=CCC=CC3)[C@H]2SC1 [Cephradine] | 100 |  |
|  | NCC(=O)O.O=C(O)[C@@H]1CCCN1 [Gly-Pro, Glycine-Proline] |  | Inhibition of LALA uptake (FIG. 7, specificity) (hPepT1): strongly inhibited; Inhibition of LALA uptake (FIGS. 5 and 6) (hPepT1; 20 mM Gly-Pro, range of LALA concentrations): strongly inhibited |
|  | Cc1c(CC(=O)NCCCCC(NC(=O)C(C)N)C(=O)O)c(=O)oc2cc(N)ccc12 [LALA, L-Ala-Lys-Nε-AMCA] |  | LALA uptake in parental line Dpar (Dpar cells): minimal; LALA uptake in DC5 [3]: specifically taken up |
|  | N[C@@H](Cc1ccccc1)C(=O)O [phenylalanine] |  | Inhibition of LALA uptake (FIG. 7, specificity) (hPepT1): not by amino acids |
|  | O=C(O)[C@@H]1CCCN1 [proline] |  | Inhibition of LALA uptake (FIG. 7, specificity) (hPepT1): not by amino acids |
